In PubChem BioAssay (NCI):
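Following 48 hours of exposure in 96-well plates, responses at five concentrations were used to interpolate endpoints linearly. Here, GI50 denotes the concentration required for 50% inhibition of growth. TGI is the concentration that stops growth completely.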

Experiments:
Experiment in all cases: growth of human tumour cells (NCI), 48 h; in the data active = GI50 below about 0.43 µM; inactive = the rest
786-0 renal = system: 786-0 renal
A549 NSCLC = system: A549 NSCLC
BT-549 breast = system: BT-549 breast
CAKI-1 renal = system: CAKI-1 renal
COLO 205 colon = system: COLO 205 colon
DU-145 prostate = system: DU-145 prostate
EKVX NSCLC = system: EKVX NSCLC
HCT-116 colon = system: HCT-116 colon
HCT-15 colon = system: HCT-15 colon
HL-60(TB) leukemia = system: HL-60(TB) leukemia
HOP-62 NSCLC = system: HOP-62 NSCLC
HS 578T breast = system: HS 578T breast
IGROV1 ovarian = system: IGROV1 ovarian
K-562 leukemia = system: K-562 leukemia
KM12 colon = system: KM12 colon
LOX IMVI melanoma = system: LOX IMVI melanoma
M14 melanoma = system: M14 melanoma
MDA-MB-231 breast = system: MDA-MB-231 breast
MDA-MB-435 = system: MDA-MB-435
MOLT-4 leukemia = system: MOLT-4 leukemia
NCI-H226 lung = system: NCI-H226 lung
NCI-H460 lung = system: NCI-H460 lung
NCI-H522 lung = system: NCI-H522 lung
NCI/ADR-RES ovarian = system: NCI/ADR-RES ovarian
OVCAR-3 ovarian = system: OVCAR-3 ovarian
OVCAR-4 ovarian = system: OVCAR-4 ovarian
OVCAR-5 ovarian = system: OVCAR-5 ovarian
OVCAR-8 ovarian = system: OVCAR-8 ovarian
PC-3 prostate = system: PC-3 prostate
RPMI-8226 leukemia = system: RPMI-8226 leukemia
RXF 393 renal = system: RXF 393 renal
SF-268 CNS = system: SF-268 CNS
SF-295 CNS = system: SF-295 CNS
SF-539 CNS = system: SF-539 CNS
SK-MEL-2 melanoma = system: SK-MEL-2 melanoma
SK-MEL-28 melanoma = system: SK-MEL-28 melanoma
SK-MEL-5 melanoma = system: SK-MEL-5 melanoma
SK-OV-3 ovarian = system: SK-OV-3 ovarian
SN12C renal = system: SN12C renal
SNB-19 CNS = system: SNB-19 CNS
SNB-75 CNS = system: SNB-75 CNS
SR leukemia = system: SR leukemia
SW-620 colon = system: SW-620 colon
T-47D breast = system: T-47D breast
TK-10 renal = system: TK-10 renal
U251 CNS = system: U251 CNS
UACC-257 melanoma = system: UACC-257 melanoma
UACC-62 melanoma = system: UACC-62 melanoma
UO-31 renal = system: UO-31 renal
A498 renal = system: A498 renal
ACHN renal = system: ACHN renal
CCRF-CEM leukemia = system: CCRF-CEM leukemia
HCC-2998 colon = system: HCC-2998 colon
HOP-92 NSCLC = system: HOP-92 NSCLC
HT29 colon = system: HT29 colon
MALME-3M melanoma = system: MALME-3M melanoma
NCI-H23 lung = system: NCI-H23 lung

CC1OC(OC2C(O)C(OCCc3ccc(O)c(O)c3)OC(CO)C2OC(=O)/C=C/c2ccc(O)c(O)c2)C(O)C(O)C1OC1OCC(O)(CO)C1O (stereo not drawn)
47.7 µM: TGI (HCT-116 colon)
23.7 µM: TGI (SF-268 CNS)
35.3 µM: TGI (LOX IMVI melanoma) | TGI (MDA-MB-435)
active: GI50 (SF-268 CNS) 14.1 nM
> 100 µM: TGI (786-0 renal) | TGI (A549 NSCLC) | TGI (CAKI-1 renal) | TGI (COLO 205 colon) | TGI (DU-145 prostate) | TGI (EKVX NSCLC) | TGI (HCT-15 colon) | TGI (HL-60(TB) leukemia) | TGI (HOP-62 NSCLC) | TGI (HS 578T breast) | TGI (IGROV1 ovarian) | TGI (K-562 leukemia) | TGI (KM12 colon) | TGI (M14 melanoma) | TGI (MDA-MB-231 breast) | TGI (MOLT-4 leukemia) | TGI (NCI-H226 lung) | TGI (NCI-H460 lung) | TGI (NCI-H522 lung) | TGI (NCI/ADR-RES ovarian) | TGI (OVCAR-3 ovarian) | TGI (OVCAR-4 ovarian) | TGI (OVCAR-5 ovarian) | TGI (OVCAR-8 ovarian) | TGI (PC-3 prostate) | TGI (RPMI-8226 leukemia) | TGI (RXF 393 renal) | TGI (SF-295 CNS) | TGI (SK-MEL-2 melanoma) | TGI (SK-MEL-28 melanoma) | TGI (SK-MEL-5 melanoma) | TGI (SK-OV-3 ovarian) | TGI (SN12C renal) | TGI (SNB-19 CNS) | TGI (SNB-75 CNS) | TGI (SR leukemia) | TGI (T-47D breast) | TGI (TK-10 renal) | TGI (U251 CNS) | TGI (UACC-257 melanoma) | TGI (UACC-62 melanoma) | TGI (UO-31 renal)
57.9 µM: TGI (SW-620 colon)
inactive: GI50 (786-0 renal) 44.6 µM | GI50 (A549 NSCLC) > 100 µM | GI50 (BT-549 breast) 19.8 µM | GI50 (CAKI-1 renal) 7.71 µM | GI50 (COLO 205 colon) > 100 µM | GI50 (DU-145 prostate) 30.1 µM | GI50 (EKVX NSCLC) > 100 µM | GI50 (HCT-116 colon) 20.3 µM | GI50 (HCT-15 colon) > 100 µM | GI50 (HL-60(TB) leukemia) 69.8 µM | GI50 (HOP-62 NSCLC) > 100 µM | GI50 (HS 578T breast) > 100 µM | GI50 (IGROV1 ovarian) > 100 µM | GI50 (K-562 leukemia) 39.3 µM | GI50 (KM12 colon) > 100 µM | GI50 (LOX IMVI melanoma) 17.2 µM | GI50 (M14 melanoma) > 100 µM | GI50 (MDA-MB-231 breast) > 100 µM | GI50 (MDA-MB-435) 16.1 µM | GI50 (MOLT-4 leukemia) 55.6 µM | GI50 (NCI-H226 lung) > 100 µM | GI50 (NCI-H460 lung) 96.9 µM | GI50 (NCI-H522 lung) > 100 µM | GI50 (NCI/ADR-RES ovarian) 89 µM | GI50 (OVCAR-3 ovarian) 27.4 µM | GI50 (OVCAR-4 ovarian) > 100 µM | GI50 (OVCAR-5 ovarian) > 100 µM | GI50 (OVCAR-8 ovarian) > 100 µM | GI50 (PC-3 prostate) 850 nM | GI50 (RPMI-8226 leukemia) 38.5 µM | GI50 (RXF 393 renal) > 100 µM | GI50 (SF-295 CNS) > 100 µM | GI50 (SF-539 CNS) 24.6 µM | GI50 (SK-MEL-2 melanoma) > 100 µM | GI50 (SK-MEL-28 melanoma) > 100 µM | GI50 (SK-MEL-5 melanoma) > 100 µM | GI50 (SK-OV-3 ovarian) > 100 µM | GI50 (SN12C renal) > 100 µM | GI50 (SNB-19 CNS) > 100 µM | GI50 (SNB-75 CNS) > 100 µM | GI50 (SR leukemia) 52.1 µM | GI50 (SW-620 colon) 25 µM | GI50 (T-47D breast) > 100 µM | GI50 (TK-10 renal) > 100 µM | GI50 (U251 CNS) > 100 µM | GI50 (UACC-257 melanoma) > 100 µM | GI50 (UACC-62 melanoma) > 100 µM | GI50 (UO-31 renal) > 100 µM
42.2 µM: TGI (BT-549 breast)
79 µM: TGI (SF-539 CNS)

COC(=O)[C@](NC(=O)OCc1ccccc1)([C@@H](C)S(=O)c1ccc(C)cc1)C(F)(F)F (stereo partly drawn)
86.6 µM: TGI (UACC-257 melanoma)
92 µM: TGI (CCRF-CEM leukemia)
33.1 µM: TGI (SK-MEL-5 melanoma)
67 µM: TGI (HT29 colon)
70 µM: TGI (MOLT-4 leukemia) | TGI (TK-10 renal)
95.1 µM: TGI (NCI-H23 lung)
65.8 µM: TGI (RXF 393 renal)
64.7 µM: TGI (COLO 205 colon)
89.2 µM: TGI (OVCAR-4 ovarian)
> 100 µM: TGI (786-0 renal) | TGI (A549 NSCLC) | TGI (ACHN renal) | TGI (CAKI-1 renal) | TGI (DU-145 prostate) | TGI (EKVX NSCLC) | TGI (HCC-2998 colon) | TGI (HCT-116 colon) | TGI (HCT-15 colon) | TGI (HOP-62 NSCLC) | TGI (HS 578T breast) | TGI (IGROV1 ovarian) | TGI (K-562 leukemia) | TGI (KM12 colon) | TGI (LOX IMVI melanoma) | TGI (M14 melanoma) | TGI (MALME-3M melanoma) | TGI (MDA-MB-231 breast) | TGI (MDA-MB-435) | TGI (NCI-H226 lung) | TGI (NCI-H460 lung) | TGI (NCI-H522 lung) | TGI (NCI/ADR-RES ovarian) | TGI (OVCAR-3 ovarian) | TGI (OVCAR-5 ovarian) | TGI (OVCAR-8 ovarian) | TGI (PC-3 prostate) | TGI (RPMI-8226 leukemia) | TGI (SF-268 CNS) | TGI (SF-295 CNS) | TGI (SK-MEL-28 melanoma) | TGI (SK-OV-3 ovarian) | TGI (SNB-19 CNS) | TGI (SNB-75 CNS) | TGI (SW-620 colon) | TGI (T-47D breast) | TGI (U251 CNS) | TGI (UACC-62 melanoma)
61.5 µM: TGI (SR leukemia)
38.9 µM: TGI (HL-60(TB) leukemia)
48.9 µM: TGI (SK-MEL-2 melanoma)
88.8 µM: TGI (BT-549 breast)
96.4 µM: TGI (HOP-92 NSCLC)
95.9 µM: TGI (UO-31 renal)
95.8 µM: TGI (A498 renal)
